Results taken from US6028197A, “Dibenzo[a,g]quinolizinium derivatives and the salts thereof” (Hanwha Corporation, priority 1998, dated 2000).
Read-outs that look alike come from different tables or passages of the source.

Assays:
HepG2 cells = assay: Cholesterol biosynthesis in cultured human liver cell line ([1,2-14C]acetate incorporation); type: cell-based; conditions: compared with AY9944 (comparative drug)
Method: Cultured human liver HepG2 cell line was grown on RPMI (Rosewell park Memorial Institute) 1640 culture medium containing 10% PBS until 60% of monolayer are formed in a 60 mm culture dish. After replacing the medium with 3 ml of a fresh culture medium containing 10% (v/v) LPDS (Fetal calf lipoprotein-deficient serum), the cells were further grown for 48 hours until 90% of cultivation degree appear The culture medium was removed and the cell was then washed with PBS. 2 ml of culture medium containing compound no. 2 (final concentration 100 μM) and AY-9944 (final concentration 1 μM) were added thereto. Then, the medium was cultivated at 37° C. for 1 hour under the condition of 95% air/5% carbonic acid gas. AY-9944 which is an inhibitor for sterol 7-reductase was used as a control drug for assuring the present experimental procedure on the inhibition of cholesterol biosynthesis. Thereafter, 3 μCi of [1,2-^14 C]acetate (72 mCi/mmol) were added thereto. The cultivation was continued for 2 hours so that the isotope is introduced into the cell and used as a precursor for sterol to be synthesized. Then, the culture medium was completely removed and washed with PBS twice and the cells were collected by scratching. 10 μg of cholesterol, 10 μg of lanosterol and [^3 H]cholesterol (30,000 dpm) were added thereto, and saponification reaction was carried out at 70° C. for an hour by adding 7.5% of methanolic KOH solution. Unsaponified sterol was removed by extracting them three times with 3 ml of petroleum ether and dried with nitrogen purging. The dried samples were redissolved in 200 μl of chloroform. An aliquot of the samples was loaded onto Silicagel 60F thin layer plate and then separated using ethyl acetate/hexane 25/75 (v/v) as the developing solvent. The thin layer film was developed by exposure to Amersham Hyperfilm at -70° C. for 7 days. Cholesterol band were confirmed by comparing the band appeared in the film and that appeared in the iodine-stained thin layer. After scratching the cholesterol band, it was quantified by a liquid scintillation counter.

Syrian Golden Hamster = assay: In vivo effect on plasma lipids in Syrian Golden Hamster; conditions: for HDL cholesterol, change versus normal diet control / LDL cholesterol, change versus normal diet control / Total cholesterol, change versus normal diet control / Triglyceride, change versus normal diet control / HDL cholesterol / LDL cholesterol / Total cholesterol / Triglyceride: 0.3 mg/kg/day oral, 14 days; for total cholesterol, LDL-cholesterol, and triglyceride levels: compared with lovastatin; for HDL cholesterol / LDL cholesterol / Total cholesterol / Triglyceride: normal diet, plasma
Method: In order to investigate the effect of the compound of formula (I) of the invention, the compound was orally administered into male Syrian Golden Hamsters having weights of 90~110 g for two weeks and blood was then taken from each animal. Plasma lipids, i.e., total cholesterol, LDL-cholesterol,HDL-cholesterol and triglycerides were analyzed using an automatic analyzer (Automatic analyzer model Hitachi 7150).
Male Syrian Golden Hamsters weighing 90~110 g distributed from Samyuk Animal Laboratory, Seoul, Korea were bred under the following conditions: they were maintained under reverse light cycle (light cycle: from 6 P.M to 6 A.M; dark cycle: from 6 A.M. to 6 P.M.). The food and water were supplied at 10 A.M. The commercially available standard rodent chows were used. The hamsters were divided into 6 or 7 animals per group. The animals were fasted for 12 hours before administrating the drug. Then, 5,6-dihydrodibenzo[a,g]quinolizinium salts (compound no. 2) dissolved in a 0.25% methyl cellulose solution was administered orally for 14 days at the indicated time per a day. After fasting animals for 24 hours from the last administration, blood was extracted using a cardiac puncture and plasma was then isolated. Plasma lipids, i.e., total cholesterol, LDL-cholesterol, HDL-cholesterol and triglyceride values were analyzed using Automatic Analyzer (Hitachi 7150).

sterol 14-reductase = biological target: T1, sterol 14-reductase (Rattus norvegicus, UniProt A0ACM8Q6X4); assay: Inhibition of sterol 14-reductase in rat liver microsomes; type: biochemical
T1 construct: microsome which was used as an enzyme source of sterol 14-reductase; from tissue; host or cells: liver microsomes of male Sprague-Dawley rats fed lovastatin and cholestyramine
T1 sequence (A0ACM8Q6X4 1-418): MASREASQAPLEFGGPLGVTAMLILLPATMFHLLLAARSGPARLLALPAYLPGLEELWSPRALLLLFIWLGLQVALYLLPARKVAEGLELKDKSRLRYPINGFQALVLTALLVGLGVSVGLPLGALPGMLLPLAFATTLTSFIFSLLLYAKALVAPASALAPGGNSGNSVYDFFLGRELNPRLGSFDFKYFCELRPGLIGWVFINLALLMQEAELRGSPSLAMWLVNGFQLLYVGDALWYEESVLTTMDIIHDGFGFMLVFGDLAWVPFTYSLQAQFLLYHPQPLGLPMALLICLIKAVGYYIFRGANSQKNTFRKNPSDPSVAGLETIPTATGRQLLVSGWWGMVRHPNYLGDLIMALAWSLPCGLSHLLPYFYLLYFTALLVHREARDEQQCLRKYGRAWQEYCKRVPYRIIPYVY

[1] = Acute oral toxicity in SD rats; type: in vivo; conditions: rat, in vivo, po, rats
Method: (§1) Meanwhile, the toxicity of the compounds of the present invention was investigated as follows: i.e., the compounds were suspended into propylene glycol and then orally administered into each of 5 male and female SD rats at the age of 5-weeks that were fasted for 12 hours. Under the usual breeding conditions, general symptoms, weight change and lethal case of the above rats were monitored for two weeks. At the dose over 2,000 mg/kg of the compound nos. 2, 3, 9 and 68, general symptoms and the body weight change of the animals were normal and the lethal case was not observed.

SD rats = assay: Acute oral toxicity in SD rats; type: in vivo; conditions: for general symptoms and the body weight change: oral dose over 2,000 mg/kg, monitored for two weeks; for lethal case: rat, in vivo
Method: as §1

[2] = read-out: Enzyme Activity (relative in vitro activity for sterol 14-reductase, IC50 class)

SMILES | inhibition of cholesterol biosynthesis in human HepG2 cell line (HepG2 cells) | HDL cholesterol, change versus normal diet control (Syrian Golden Hamster) | LDL cholesterol, change versus normal diet control (Syrian Golden Hamster) | Total cholesterol, change versus normal diet control (Syrian Golden Hamster) | Triglyceride, change versus normal diet control (Syrian Golden Hamster) | total cholesterol, LDL-cholesterol, and triglyceride levels (Syrian Golden Hamster) | HDL cholesterol (Syrian Golden Hamster) | LDL cholesterol (Syrian Golden Hamster) | Total cholesterol (Syrian Golden Hamster) | Triglyceride (Syrian Golden Hamster) | IC50 (sterol 14-reductase; [2]) | LD50 at 336 h ([1]; female) | LD50 at 336 h ([1]; male) | general symptoms and the body weight change (SD rats) | lethal case (SD rats) | IC50 (sterol 14-reductase; rat liver microsome, anaerobic, 10 min at 37° C., read-out: level of compound at which 50% of inhibition of the enzymatic activity was observed)
CCc1c2[n+](cc3c(OCc4ccc(C(F)(F)F)cc4)c(OC)ccc13)CCc1cc(OC)c(OC)cc1-2 [Compound No. 9, 5,6-dihydro-2,3-dimethoxybenzo[a]-13-ethyl-10-methoxy-9-(4-trifluoromethyl)benzyloxybenzo[g]quinolizinium chloride] | markedly inhibited | -6.0% | -45.4% | -37.0% | -43.6% | markedly decreased | 56.2 ± 3.0 mg/dL | 20.2 ± 2 mg/dL | 82.4 ± 7 mg/dL | 44.8 ± 5.5 mg/dL | < 1000 nM | > 2000 mg/kg | > 2500 mg/kg | normal | not observed | –
CCc1c2[n+](cc3c(OCc4c(F)c(F)c(F)c(F)c4F)c(OC)ccc13)CCc1cc(OC)c(OC)cc1-2 [Compound No. 3, 5,6-dihydro-2,3-dimethoxybenzo[a]-13-ethyl-10-methoxy-9-(2,3,4,5,6-pentafluoro)benyloxybenzo[g]quinolizinium chloride] | markedly inhibited | +5.4% | -49.2% | -23.5% | -38.0% | markedly decreased | 63.0 ± 3.0 mg/dL | 18.8 ± 2 mg/dL | 89.0 ± 7 mg/dL | 49.2 ± 6 mg/dL | < 1000 nM | > 2000 mg/kg | > 2000 mg/kg | normal | not observed | –
CCc1c2[n+](cc3c(OCc4ccc(C(C)(C)C)cc4)c(OC)ccc13)CCc1cc(OC)c(OC)cc1-2 [Compound No. 2, 5,6-dihydro-2,3-dimethoxybenzo[a]-9-[4-(tert-butyl)benzyloxy]-13-ethyl-10-methoxybenzo[g]quinolizinium chloride] | markedly inhibited | +11.4% | -16.0% | -11.5% | -14.6% | markedly decreased | 66.6 ± 7 mg/dL | 31.0 ± 3 mg/dL | 115.8 ± 8 mg/dL | 67.8 ± 8 mg/dL | < 1000 nM | > 2000 mg/kg | > 2000 mg/kg | normal | not observed | 100 to 300 nM
